A short description of one data set: Pharmacokinetics of rats. It counts as in vivo. Conditions: rat, plasma, SD male rats; for Vd / AUC(0-t) / clearance / half-life: IV 1 mg/kg; for Vd: read-out: Apparent volume of distribution Vdss; for AUC(0-t): read-out: Area under the plasma concentration-time curve AUC0-24h; for clearance: read-out: Clearance rate CL; for half-life: read-out: Half-life T1/2 (converted); for bioavailability / AUC / Cmax / Tmax: PO 3 mg/kg; for AUC: read-out: Area under the plasma concentration-time curve AUC; for Cmax: read-out: Peak concentration Cmax; for Tmax: read-out: Peak time Tmax. As to the method: The purpose of this experiment was to study the pharmacokinetics of the tested compound in the plasma of SD male rats after intravenous injection and oral administration.
SD male rats from 7 to 10 weeks old were selected, and the dosage of intravenous and oral administration was 1 mg/kg and 3 mg/kg respectively. Rats in the gavage group fasted for at least 12 hours before administration, and feeding was resumed after administration for 4 hours. Intravenous injection group was free to eat and drink during the whole experiment.
Drug preparation operation: in the intravenous injection group, the compound was weighed and dissolved with 5% DMSO/10% Solutol/85% H2O, and a clear solution of 0.5 mg/mL was prepared by vortex, which was filtered by a 0.22 m microporous membrane for later use. In the gavage group, the compound was dissolved in 5% DMSO/10% Solutol/85% H2O, and a uniform suspension was prepared by vortex. On the day of the experiment, the animals in the intravenous group were given the corresponding compound by a single injection through the tail vein, and the dosage volume was 2 mL/kg. In the oral group, the corresponding compounds were given by single gavage, and the dosage volume was 5 mL/kg. The animals before administration were weighed, and the administration volume was calculated according to the weight. The sampling time was 0.083 (injection group), 0.25, 0.5, 1, 2, 4, 6, 8, 10 (gavage group), 24 hours. Approximately 250 μL of whole blood was collected through the jugular vein at each time point for plasma preparation for concentration determination by high performance liquid chromatography-tandem mass spectrometry (LC-MS/MS). All animals were euthanized by CO2 anesthesia after collecting PK samples at the last time point. The non-atrioventricular model of WinnonLin™ Version 6.3 (Pharsight, Mountain View, CA) pharmacokinetic software was used to process the plasma concentration, and the pharmacokinetic parameters were calculated by linear logarithmic trapezoid method.

The target of a further data set is T1, human IRAK4 (Homo sapiens, UniProt Q9NWZ3).
T1 construct: purchased Reaction Biology Corp
T1 sequence (Q9NWZ3 1-460): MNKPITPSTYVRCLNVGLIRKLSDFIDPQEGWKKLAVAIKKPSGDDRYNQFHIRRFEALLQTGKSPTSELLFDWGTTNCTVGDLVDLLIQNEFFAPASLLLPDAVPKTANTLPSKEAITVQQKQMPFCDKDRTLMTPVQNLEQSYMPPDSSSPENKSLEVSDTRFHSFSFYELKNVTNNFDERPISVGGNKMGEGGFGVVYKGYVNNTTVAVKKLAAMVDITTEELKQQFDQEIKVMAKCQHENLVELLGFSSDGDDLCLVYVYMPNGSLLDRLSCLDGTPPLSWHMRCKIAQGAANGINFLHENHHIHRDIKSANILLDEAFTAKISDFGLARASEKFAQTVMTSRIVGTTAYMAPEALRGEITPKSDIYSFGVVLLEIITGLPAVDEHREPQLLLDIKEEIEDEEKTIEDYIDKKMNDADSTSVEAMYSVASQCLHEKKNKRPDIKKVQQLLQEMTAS
In words: In vitro IRAK4 kinase activity, 33P isotope-labeled kinase assay. It counts as biochemical. The method, then: The IC50 values were determined using ^33P isotope-labeled kinase activity assay (Reaction Biology Corp) to evaluate the inhibitory ability of the tested compounds on human IRAK4.
Buffer conditions: 20 mM Hepes (pH 7.5), 10 mM MgCl2, 1 mM EGTA, 0.02% Brij35, 0.02 mg/mL BSA, 0.1 mM Na3VO4, 2 mM DTT, 1% DMSO.
Test procedure: At room temperature, the tested compound was dissolved in DMSO and a 10 mM solution was prepared for use. The substrate was dissolved in a newly prepared buffer solution, and the tested IRAK4 kinase was added thereto and mixed evenly. The DMSO solution dissolved with the tested compound was added to the above mixed evenly reaction solution using acoustic technique (Echo 550). After incubation for 15 minutes, ^33P-ATP was added to initiate the reaction. The reaction was carried out at room temperature for 120 minutes, and the reaction mixture was dropped on P81 ion exchange filter paper (Whatman #3698-915). The filter paper was washed repeatedly with 0.75% phosphoric acid solution, and the radioactivity of phosphorylated substrate residues on the filter paper was determined. The kinase activity data were expressed by comparing the kinase activity of the group containing the tested compound with the kinase activity of the blank group (only containing DMSO), and the IC50 value was obtained by curve fitting by Prism4 software (GraphPad), the experimental results were shown in Table 2.

The subject of a further data set is OCI-LY3 cell line. In words: OCI-LY3 cell proliferation (CTG). Conditions: Homo sapiens, 72 hours. It counts as cell-based. As to the method: The tumor cell line OCI-LY3 was used to detect the effect of the compound of the disclosure on inhibiting tumor cell proliferation in vitro.
The tumor cell line used in this experiment was provided by Nanjing Cobioer Biotechnology Co., Ltd. See Table 6 below for specific information.
The OCI-LY3 cell line was cultured in the corresponding medium at 37° C. and 5% CO2, and the logarithmic growth period cells were used for experimental planking. The cells were collected and centrifuged at 800 rpm for 5 minutes, and the culture medium was re-suspended and spread in a 96-well plate. After being cultured overnight in 37° C., 5% CO2 incubator, drugs with different concentration gradients (10 μL of prepared diluent of test compound was added) were added, and incubated in 37° C., 5% CO2 incubator for 72 hours. The cell culture plate was incubated with CTG reagent at room temperature in the dark for 30 minutes and return to room temperature. CTG solution was added into the biosafety cabinet in the dark 100 μL/well, and was shaken and mixed evenly on plate shaker in the dark for 2 minutes, and incubated at room temperature in the dark for 10 minutes. The luminous value was read and recorded with Perkin Elmer Envision instrument.
The luminous value of the blank control group was subtracted from the luminous value measured at each drug concentration, the ratio of this value to DMSO group was taken as the cell inhibition rate (%). GraphPad software was used, the logarithm of drug concentration (log drug concentration) versus inhibition rate was plotted, and the IC50 value and 95% confidence value were automatically fitted and calculated by log (inhibitor) vs. response-variable slop (four parameters) algorithm of nonlinear regression by software.

A word on the clearance: it is the rate of elimination divided by the concentration. In general, bioavailability refers to the share of a dose that reaches the circulation, judged against a reference dose that is usually intravenous. Low values mean poor availability, high ones good availability. Usually Tmax stands for the time from dosing to the highest level. As usually defined, the IC50 is the concentration needed to halve the response being measured. Low readings indicate greater potency in that assay, high ones weaker potency in that assay.

Turning to `Cc1cc(-c2nc(C(=O)Nc3cn4cc(C(C)(C)O)nc4cc3-c3ccccc3)co2)ccn1` [WX009], in “Pharmacokinetics of rats”, the Vd is 0.2 L/kg, the AUC(0-t) amounted to 35.5 µM·h, the clearance was 1.1 mL/min/kg and the half-life is 2.5 h. For the same compound, in “Pharmacokinetics of rats”, the bioavailability was 55%, the AUC was found to be 59.1 µM·h, the Cmax was 10.1 µM and the Tmax was 1.3 h. On human IRAK4, this compound had an IC50 of 0.9 nM. In addition, in the data set on OCI-LY3 cell line, the IC50 was determined as 121 nM.
Consider `CC(C)(O)c1cn2cc(NC(=O)c3coc(-c4ccnc(N)c4)n3)c(-c3ccccc3)cc2n1` [WX017], for which, in “Pharmacokinetics of rats”, the Vd was found to be 0.8 L/kg, the AUC(0-t) is 5.51 µM·h, the clearance is 7 mL/min/kg and the half-life is 4.1 h. Also, in the data set “Pharmacokinetics of rats”, the bioavailability stood at 29%, the AUC was determined as 4.77 µM·h, the Cmax came out at 1.02 µM and the Tmax came to 0.8 h. Besides, the IC50 on human IRAK4 came to 0.1 nM. For the same compound, inhibition in the data set with OCI-LY3 cell line was half-maximal at 18 nM (IC50).
`CC(C)(O)c1cn2cc(NC(=O)c3coc(-c4ccnc(N)c4F)n3)c(-c3ccccc3)cc2n1` [WX027]: in the data set “Pharmacokinetics of rats”, the Vd was found to be 0.3 L/kg, the AUC(0-t) is 8.84 µM·h, the clearance was determined as 4 mL/min/kg and the half-life was 1.4 h. Also, in “Pharmacokinetics of rats”, the bioavailability is 38%, the AUC came out at 10.2 µM·h, the Cmax came out at 4.33 µM and the Tmax amounted to 0.3 h. The compound also gave an IC50 at human IRAK4 of 0.1 nM. Besides, the IC50 in the data set on OCI-LY3 cell line is 48 nM.

The values above are taken from patent US20230391776A1, “AMIDE OXAZOLE COMPOUND” (MEDSHINE DISCOVERY INC., priority 2020, published 2023).
